Laboratory results reported in USRE38257E1, “Piperdine derivatives and hypotensives containing the same” (Ajinomoto Co., Inc., priority 1988, dated 2003).
Counter-ions that a name gives are not always drawn.

Tested on: male spontaneously hypertensive rats
Experiment: Decrease in systolic blood pressure in spontaneously hypertensive rats after intravenous bolus injection, indirect (tail-cuff) method
Format: in vivo, rat
Conditions: for Decrease in systolic blood pressure (mmHg) time after administration (hour) 0.5: 0.5 hour after administration; for Decrease in systolic blood pressure (mmHg) time after administration (hour) 4: 4 hours after administration
Procedure: As test animals, four male spontaneously hypertensive rats (weight 400 to 440 g) that were sufficiently adapted for feeding and in which hypertension was confirmed were used.
Physiological saline aqueous solution containing 2.5% Nicolle and 2.5% ethanol of sample was intravenously administered by bolus injection at a dose of 1 ml per 1 kg of body weight. Systolic blood pressure after administration was measured by the indirect (tail-cuff) method.

[1] = dose 10 mg/kg i.v. bolus, hydrochloride, 10 mg/kg

Compound | Decrease in systolic blood pressure (mmHg) time after administration (hour) 0.5 (dose 10 mg/kg i.v. bolus) [mmHg] | Decrease in systolic blood pressure (mmHg) time after administration (hour) 4 (dose 10 mg/kg i.v. bolus) [mmHg] | other results
1-(4-Acetylaminominocinnamyl)-4-(5H-Dibenzo[a,d]thiepiz-5-ylidene)-1-piperidine hydrochloride [Example 327] |  |  | Decrease in systolic blood pressure (mmHg) time after administration (hour) 0.5 (dose 3 mg/kg i.v. bolus): −10 mmHg; Decrease in systolic blood pressure (mmHg) time after administration (hour) 4 (dose 3 mg/kg i.v. bolus): −43 mmHg
1-(4-Methoxyxyxlohexyl)-4-(4-(5H-dibenzo[a,d]cyclohepten-5-ylidene)-1-piperidinyl)butane hydroxybutane hydrochloride [Example 208] | −131 | −19 | 
1-Acetoxy-4-(4-(5H-dibenzo[a,d]cyclohepten-5-ylidene)-1-piperidinyl)-(3,4-dimethoxy)phenylButane hydroxybutane hydrochloride [Example 206] | −61 | −27 | 
2,6-Dimethyl-4-(4-(4-(5H-Dibenzo[a,d]cyclohepten-5-ylidene)-1-piperidinyl)-1-butyl)-5-methylpyrydine-3,5-dicarboxylate dihydrochloride [Example 288] | −92 | −14 | 
2,6-Dimethyl-4-(4-(4-(5H-dibenzo[a,d]cyclohepten-5-ylidene)-1-piperidinyl)butyl)-5-methyl-1,4-dihydropyrydine-3,5-dicarboxylate hydrochloride [Example 285] | −62 | −7 | 
2-(2-4-Dibenzo[a,d]cyclohepten-5-ylidene)-1-piperidinyl)-1-ethyl)-5′,6′-dimethoxy-1-indanone hydrochloride [Example 261] | −123 | −11 | 
3-(4-(5H-Dibenzo[a,d]cyclohepten-5-ylidene)-1-piperidinyl)-1-(2-pyridyl)-1-propane hydrochloride [Example 284] |  |  | Decrease in systolic blood pressure (mmHg) time after administration (hour) 0.5 (dose 3 mg/kg i.v. bolus): −151 mmHg; Decrease in systolic blood pressure (mmHg) time after administration (hour) 4 (dose 3 mg/kg i.v. bolus): −40 mmHg
4-(2-(4-(5H-Dibenzo[a,d]cyclohepten-5-ylidene)-1-piperidinyl)-1-ehtyl)-2,4,5,6-tetramethyl-1,4-dihydropyridino-3,5-dicarboxylate hydrochloride [Example 311] | −90 | −18 | 
4-(4-(5H-Dibenzo[a,d]cyclohepten-5-ylidene)-1-piperidinyl)-3′,4′-dimethoxybutyrophenone N-oxide [Example 271] | −17 | −13 | 
4-(4-(5H-Dibenzo[a,d]cyclohepten-5-ylidene)-1-piperidinyl)-4′-trimethoxybutyrophenone hydrochloride [Example 172] | −115 | −25 | 
4-(5H-Dibenzo[a,d]cyclohepten-5-ylidene)-1-(4-N-imidazolylmethyl)cinnamyl)piperidine dihydroxybutane hydrochloride [Example 210] |  |  | Decrease in systolic blood pressure (mmHg) time after administration (hour) 0.5 (dose 1 mg/kg i.v. bolus): −78 mmHg; Decrease in systolic blood pressure (mmHg) time after administration (hour) 4 (dose 1 mg/kg i.v. bolus): −69 mmHg
5-(4-(5H-Dibenzo[a,d]cyclohepten-5-ylidene)-1-piperidine hydrochloride [Example 116] | −36 | −12 | 
5-(4-(5H-Dibenzo[a,d]cyclohepten-5-ylidene)-1-piperidinyl)-2-isopropyl-2-phenylvaleronitrile hydrochloride [Example 122] | −120 | −62 | 
5-(4-(5H-Dibenzo[a,d]cyclohepten-5-ylidene)-1-piperidinyl)-2-phenylvaleronitrile hydrochloride [Example 121] | −42 | −19 | 
5-(4-(5H-Dibenzo[a,d]cyclohepten-5-ylidene)-1-piperidinyl-2-(3,4-dimethoxyphenyl)valeronitrile hydrochloride [Example 123] | −55 | −7 | 
CCCCCCN1CCC(=C2c3ccccc3C=Cc3ccccc32)CC1.Cl [Example 1, 4-(5H-Dibenzo[a,d]cyclohepten-5-ylidene)-1-hexylpiperidine hydrochloride] | −67 | 1 | 
CCCCCCCCN1CCC(=C2c3ccccc3C=Cc3ccccc32)CC1.Cl [Example 2, 4-(5H-Dibenzo[a,d]cyclohepten-5-ylidene)-1-octylpiperidine hydrochloride] | −125 | −34 | 
CCCCCCCCCCN1CCC(=C2c3ccccc3C=Cc3ccccc32)CC1.Cl [Example 3, 1-Decyl-4-(5H-dibenzo[a,d]cyclohepten-5-ylidene)piperidine hydrochloride] |  |  | Decrease in systolic blood pressure (mmHg) time after administration (hour) 0.5 (dose 3 mg/kg i.v. bolus): −110 mmHg; Decrease in systolic blood pressure (mmHg) time after administration (hour) 4 (dose 3 mg/kg i.v. bolus): −22 mmHg
CCCCCCCCCCCCN1CCC(=C2c3ccccc3C=Cc3ccccc32)CC1.Cl [Example 4, 4-(5H-Dibenzo[a,d]cyclohepten-5-ylidene)-1-dodecylpiperidine hydrochloride] | −76 | 0 | 
CCCCCCCCCCCCCCN1CCC(=C2c3ccccc3C=Cc3ccccc32)CC1.Cl [Example 5, 4-(5H-Dibenzo[a,d]cyclohepten-5-ylidene)-1-tetradecylpiperidine hydrochloride] | −56 | −20 | 
C1=Cc2ccccc2C(=C2CCN(CC3CCCCC3)CC2)c2ccccc21.Cl [Example 7, 1-Cyclohexylmethyl-4-(5H-dibenzo[a,d]cyclohepten-5-ylidene)piperidine hydrochloride] | −57 | −15 | 
C1=Cc2ccccc2C(=C2CCN(CCC3CCCCC3)CC2)c2ccccc21.Cl [Example 8, 1-Cyclohexyl-2-(4-(5H-dibenzo[a,d]cyclohepten-5-ylidene)-1-piperidinyl)ethane hydrochloride] | −95 | −21 | 
C1=Cc2ccccc2C(=C2CCN(CCCC3CCCCC3)CC2)c2ccccc21.Cl [Example 9, 1-Cyclohexyl-3-(4-(5H-dibenzo[a,d]cyclohepten-5-ylidene)-1-piperidinyl)propane hydrochloride] | −91 | −19 | 
C1=Cc2ccccc2C(=C2CCN(CCCCC3CCCCC3)CC2)c2ccccc21.Cl [Example 10, 1-Cyclohexyl-4-(4-(5H-dibenzo[a,d]cyclohepten-5-ylidene)-1-piperidinyl)butane hydrochloride] |  |  | Decrease in systolic blood pressure (mmHg) time after administration (hour) 0.5 [1]: −129 mmHg; Decrease in systolic blood pressure (mmHg) time after administration (hour) 4 [1]: −21 mmHg
C1=Cc2ccccc2C(=C2CCN(CCCCCC3CCCCC3)CC2)c2ccccc21 [Example 11, 1-Cyclohexyl-5-(4-(5H-dibenzo[a,d]cyclohepten-5-ylidene)-1-piperidinyl)pentane hydrochloride] | −166 |  | 
C1=Cc2ccccc2C(=C2CCN(Cc3ccccc3)CC2)c2ccccc21.Cl [Example 12, 1-Benzyl-4-(5H-dibenzo[a,d]cyclohepten-5-ylidene)piperidine hydrochloride] | −27 | 1 | 
C1=Cc2ccccc2C(=C2CCN(CCc3ccccc3)CC2)c2ccccc21.Cl [Example 13, 2-(4-(5H-Dibenzo[a,d]cyclohepten-5-ylidene)-1-piperidinyl)-1-phenylethane hydrochloride] | −47 | 4 | 
C1=Cc2ccccc2C(=C2CCN(CCCc3ccccc3)CC2)c2ccccc21.Cl [Example 14, 3-(4-(5H-Dibenzo[a,d]cyclohepten-5-ylidene)-1-piperidinyl)-1-phenylpropane hydrochloride] | −105 | −10 | 
